Results taken from patent US20090181986A1, “SUBSTITUTED HETEROCYCLIC COMPOUNDS” (priority 2007, published 2009).

Target: hERG potassium channel (Homo sapiens, UniProt Q12809)
Experiment: hERG screening assay (PatchXpress patch clamp, CHO cells)

Chain of hERG potassium channel (Q12809 whole entry): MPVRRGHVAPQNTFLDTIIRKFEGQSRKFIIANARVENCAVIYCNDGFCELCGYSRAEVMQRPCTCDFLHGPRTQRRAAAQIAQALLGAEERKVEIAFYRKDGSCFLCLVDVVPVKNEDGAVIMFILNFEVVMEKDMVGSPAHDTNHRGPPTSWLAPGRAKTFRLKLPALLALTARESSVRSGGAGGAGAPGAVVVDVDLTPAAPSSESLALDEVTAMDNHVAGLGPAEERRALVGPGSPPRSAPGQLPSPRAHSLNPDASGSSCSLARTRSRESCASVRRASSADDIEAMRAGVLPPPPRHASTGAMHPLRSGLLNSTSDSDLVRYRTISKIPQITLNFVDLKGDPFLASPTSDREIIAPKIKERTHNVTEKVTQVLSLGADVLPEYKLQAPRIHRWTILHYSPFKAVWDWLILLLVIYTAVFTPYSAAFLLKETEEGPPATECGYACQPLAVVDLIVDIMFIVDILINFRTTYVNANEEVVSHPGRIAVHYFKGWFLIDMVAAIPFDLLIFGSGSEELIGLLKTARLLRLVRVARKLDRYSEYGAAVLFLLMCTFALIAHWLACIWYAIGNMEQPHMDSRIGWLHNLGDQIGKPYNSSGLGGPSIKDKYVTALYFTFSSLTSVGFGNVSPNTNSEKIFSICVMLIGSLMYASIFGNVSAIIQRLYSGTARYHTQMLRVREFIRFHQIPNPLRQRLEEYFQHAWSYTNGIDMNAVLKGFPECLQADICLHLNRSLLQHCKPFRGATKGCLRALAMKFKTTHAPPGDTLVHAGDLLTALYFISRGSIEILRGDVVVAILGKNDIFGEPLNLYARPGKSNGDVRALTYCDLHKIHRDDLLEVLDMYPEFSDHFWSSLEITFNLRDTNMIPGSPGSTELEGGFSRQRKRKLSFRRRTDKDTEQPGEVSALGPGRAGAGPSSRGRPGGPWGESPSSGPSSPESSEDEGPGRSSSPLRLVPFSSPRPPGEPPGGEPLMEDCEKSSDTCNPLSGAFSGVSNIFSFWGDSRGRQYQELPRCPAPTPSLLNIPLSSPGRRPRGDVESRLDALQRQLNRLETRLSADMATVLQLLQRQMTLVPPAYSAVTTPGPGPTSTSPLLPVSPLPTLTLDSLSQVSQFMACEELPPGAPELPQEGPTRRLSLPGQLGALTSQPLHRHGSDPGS

| Structure (SMILES) | hERG Patch Clamp hERG % blk (1 μM test cmpd) [%] | hERG Patch Clamp hERG % blk (10 μM test cmpd) [%] |
| --- | --- | --- |
| CC1=C(C(=O)OC(C)Cc2ccccc2)C(c2cccc3ccccc23)n2nnnc2N1 (stereo not drawn) [PT-064, 1-phenylpropan-2-yl 5-methyl-7-(naphthalen-1-yl)-4,7-dihydrotetrazolo[1,5-a]pyrimidine-6-carboxylate] | 20.5 | 37.5 |
| CC1=C(C(=O)NCc2ccccc2)C(c2ccc3ccccc3c2)n2nnnc2N1 (stereo not drawn) [PT-068, N-benzyl-5-methyl-7-(naphthalen-2-yl)-4,7-dihydrotetrazolo[1,5-a]pyrimidine-6-carboxamide] | 14 | 22.5 |
| CCOC(=O)C1=C(C)Nc2[nH]nc(C)c2C1c1cccc2ccccc12 (stereo not drawn) [PT-074, ethyl 3,6-dimethyl-4-(naphthalen-1-yl)-4,7-dihydro-1H-pyrazolo[3,4-b]pyridine-5-carboxylate] | 14 | 43 |
| COC(=O)c1ccc(-c2n[nH]c3c2C(c2cccc4ccccc24)C2=C(COC2=O)N3)cc1 (stereo not drawn) [PT-085, methyl 4-(4-(naphthalen-1-yl)-5-oxo-4,5,7,8-tetrahydro-1H-furo[3,4-b]pyrazolo[4,3-e]pyridin-3-yl)benzoate] | 34 | 44.5 |
| CCOC(=O)C1=C(C)Nc2nccn2C1c1ccc2ccccc2c1 (stereo not drawn) [PT-086, ethyl 7-methyl-5-(naphthalen-2-yl)-5,8-dihydroimidazo[1,2-a]pyrimidine-6-carboxylate] | 13.5 | 57.5 |
| CCCC1=C(C(=O)OCC)C(c2ccc(C(=O)O)cc2)C2=C(CC(C)(C)CC2=O)N1 (stereo not drawn) [PT-133, 4-(3-(ethoxycarbonyl)-7,7-dimethyl-5-oxo-2-propyl-1,4,5,6,7,8-hexahydroquinolin-4-yl)benzoic acid] | 10 | 12 |
| CCOC(=O)C1=C(C)NC2=C(C(=O)CCC2)C1c1cccc2ncccc12 (stereo not drawn) [PT-140, ethyl 2-methyl-5-oxo-1,4,5,6,7,8-hexahydro-4,5′-biquinoline-3-carboxylate] | 13.5 | 34.5 |
| CCOC(=O)C1=C(C)NC2=C(C(=O)CCC2)C1c1ccnc2ccccc12 (stereo not drawn) [PT-190, ethyl 2-methyl-5-oxo-1,4,5,6,7,8-hexahydro-4,4′-biquinoline-3-carboxylate] | 10.5 | 32 |
| CC1=C(C(=O)OCc2ccccc2)[C@@H](c2ccccc2-c2ccc(Cl)s2)n2nnnc2N1 [PT-237, (R)-benzyl 7-(2-(5-chlorothiophen-2-yl)phenyl)-5-methyl-4,7-dihydrotetrazolo[1,5-a]pyrimidine-6-carboxylate] | 11.5 | 22.5 |
| CC1=C(C(=O)OCc2ccccc2)C(c2ccccc2-c2ccc(C(=O)O)cc2)C2=C(CCCC2=O)N1 (stereo not drawn) [PT-249, 2′-(3-(benzyloxycarbonyl)-2-methyl-5-oxo-1,4,5,6,7,8-hexahydroquinolin-4-yl)biphenyl-4-carboxylic acid] | 11.5 | 15.5 |
| CC1=C(c2nnc(CCc3ccccc3)o2)C(c2cccc3ccccc23)n2nnnc2N1 (stereo not drawn) [PT-252, 2-(5-methyl-7-(naphthalen-1-yl)-4,7-dihydrotetrazolo[1,5-a]pyrimidin-6-yl)-5-phenethyl-1,3,4-oxadiazole] | 10.5 | 78 |
| CC1=C(C(=O)OCc2ccccc2)C(c2ccccc2-c2ccc(C(=O)O)cc2)n2nnnc2N1 (stereo not drawn) [PT-254, 2′-(6-(benzyloxycarbonyl)-5-methyl-4,7-dihydrotetrazolo[1,5-a]pyrimidin-7-yl)biphenyl-4-carboxylic acid] | 15 | 20 |
| CC1=C(C(=O)OCc2ccc(Cn3cccn3)cc2)C(c2cccc3ccccc23)n2nnnc2N1 (stereo not drawn) [PT-279, 4-((1H-pyrazol-1-yl)methyl)benzyl 5-methyl-7-(naphthalen-1-yl)-4,7-dihydrotetrazolo[1,5-a]pyrimidine-6-carboxylate] | 12.5 | 45 |
| CC1=C(C(=O)OCc2ccc(Cn3cccn3)cc2)C(c2cccs2)n2nnnc2N1 (stereo not drawn) [PT-280, 4-((1H-pyrazol-1-yl)methyl)benzyl 5-methyl-7-(thiophen-2-yl)-4,7-dihydrotetrazolo[1,5-a]pyrimidine-6-carboxylate] | 11.5 | 48 |
| CC1=C(C(=O)OCc2ccccc2)C(c2c(-c3ccc(C(=O)O)cc3)sc3ccccc23)n2nnnc2N1 (stereo not drawn) [PT-294, 4-(3-(6-(benzyloxycarbonyl)-5-methyl-4,7-dihydrotetrazolo[1,5-a]pyrimidin-7-yl)benzo[b]thiophen-2-yl)benzoic acid] | 12.5 | 15.5 |
| COc1cc(Cl)ccc1COC(=O)C1=C(C)NC2=C(C(=O)CCC2)C1c1c(Cl)cccc1Cl (stereo not drawn) [PT-303, 4-chloro-2-methoxybenzyl 4-(2,6-dichlorophenyl)-2-methyl-5-oxo-1,4,5,6,7,8-hexahydroquinoline-3-carboxylate] | 12 | 30.5 |
| COc1cc(Cl)ccc1COC(=O)C1=C(C)Nc2nnnn2C1c1c(Cl)cccc1Cl (stereo not drawn) [PT-306, 4-chloro-2-methoxybenzyl 7-(2,6-dichlorophenyl)-5-methyl-4,7-dihydrotetrazolo[1,5-a]pyrimidine-6-carboxylate] | 10 | 48.5 |
| COc1cc(Cl)ccc1COC(=O)C1=C(C)Nc2nnnn2C1c1c(C)cccc1C (stereo not drawn) [PT-307, 4-chloro-2-methoxybenzyl 7-(2,6-dimethylphenyl)-5-methyl-4,7-dihydrotetrazolo[1,5-a]pyrimidine-6-carboxylate] | 10 | 62.5 |
| C=CCOC(=O)C1=C(C)Nc2nnnn2C1c1cccc2ccccc12 (stereo not drawn) [PT-319, allyl 5-methyl-7-(naphthalen-1-yl)-4,7-dihydrotetrazolo[1,5-a]pyrimidine-6-carboxylate] | 10 | 41 |
| CC1=C(C(=O)OCc2ccccc2)C(c2ccc3ccccc3c2)C2=C(CCCC2=O)N1 (stereo not drawn) [PT-320, benzyl 2-methyl-4-(naphthalen-2-yl)-5-oxo-1,4,5,6,7,8-hexahydroquinoline-3-carboxylate] | 10 | 10 |
| CC1=C(C(=O)OCc2ccccc2)C(c2ccc3ccccc3c2)c2c(C)n[nH]c2N1 (stereo not drawn) [PT-325, benzyl 3,6-dimethyl-4-(naphthalen-2-yl)-4,7-dihydro-1H-pyrazolo[3,4-b]pyridine-5-carboxylate] | 10 | 36 |
| CC1=C(C(=O)OCc2ccccc2)C(c2ccccc2N2CCN(S(C)(=O)=O)CC2)n2nnnc2N1 (stereo not drawn) [PT-339, benzyl 5-methyl-7-(2-(4-(methylsulfonyl)piperazin-1-yl)phenyl)-4,7-dihydrotetrazolo[1,5-a]pyrimidine-6-carboxylate] | 11.5 | 43.5 |
| CC1=C(C(=O)OCc2ccccc2)C(c2ccccc2N2CCN(C)CC2)n2nnnc2N1 (stereo not drawn) [PT-340, benzyl 5-methyl-7-(2-(4-methylpiperazin-1-yl)phenyl)-4,7-dihydrotetrazolo[1,5-a]pyrimidine-6-carboxylate] | 57 | 93.5 |
| CC1=C(C(=O)OCc2ccccc2)C(c2ccccc2N2CCCCC2)n2nnnc2N1 (stereo not drawn) [PT-342, benzyl 5-methyl-7-(2-(piperidin-1-yl)phenyl)-4,7-dihydrotetrazolo[1,5-a]pyrimidine-6-carboxylate] | 10 | 47.5 |
| CC1=C(C(=O)OCc2ccccc2)C(c2ccccc2-c2cccc(NS(C)(=O)=O)c2)n2nnnc2N1 (stereo not drawn) [PT-348, benzyl 5-methyl-7-(3′-(methylsulfonamido)biphenyl-2-yl)-4,7-dihydrotetrazolo[1,5-a]pyrimidine-6-carboxylate] | 10 | 38.5 |
| CC1=C(C(=O)OCc2ccccc2)C(c2nccs2)n2nccc2N1 (stereo not drawn) [PT-363, benzyl 5-methyl-7-(thiazol-2-yl)-4,7-dihydropyrazolo[1,5-a]pyrimidine-6-carboxylate] | 10 | 19.5 |
| CC1=C(C(=O)OCc2ccccc2)C(c2nccs2)n2nnnc2N1 (stereo not drawn) [PT-364, benzyl 5-methyl-7-(thiazol-2-yl)-4,7-dihydrotetrazolo[1,5-a]pyrimidine-6-carboxylate] | 10 | 17.5 |
| CC1=C(C(=O)OCc2ccccc2)C(c2nccs2)c2cn[nH]c2N1 (stereo not drawn) [PT-369, benzyl 6-methyl-4-(thiazol-2-yl)-4,7-dihydro-1H-pyrazolo[3,4-b]pyridine-5-carboxylate] | 10 | 25 |
| CCS(=O)(=O)N1CCN(c2cccc(OC)c2C2C(C(=O)OCc3ccccc3)=C(C)Nc3nnnn32)CC1 (stereo not drawn) [PT-378, benzyl 7-(2-(4-(ethylsulfonyl)piperazin-1-yl)-6-methoxyphenyl)-5-methyl-4,7-dihydrotetrazolo[1,5-a]pyrimidine-6-carboxylate] | 10 | 41.5 |
| CC1=C(C(=O)OCc2ccccc2)C(c2c(Br)sc3ccccc23)n2nnnc2N1 (stereo not drawn) [PT-386, benzyl 7-(2-bromobenzo[b]thiophen-3-yl)-5-methyl-4,7-dihydrotetrazolo[1,5-a]pyrimidine-6-carboxylate] | 10 | 16.5 |
